In brackets after ≈: the same amount, converted by molar mass. Where two headings read alike, the source gives them in different places.
Experiments:
Format in all cases: cell-based
[1] = test system: Klebsiella pneumoniae; assay: MIC and MBC, broth microdilution (Example 4, Table 3); details: Klebsiella pneumoniae, NCTC13440, Klebsiella pneumoniae NCTC13440 (VIM-1); read-out: MIC
[2] = test system: Enterobacter hormaechei; assay: MIC, broth microdilution, standard strains and Japanese clinical isolates (Example 5, Table 4); details: ATCCBAA2082; KUB4001 Enterobacter hormaechei ATCC BAA-2082, KPC-2
[3] = test system: Providencia rettgeri; assay: as above; details: ATCCBAA2525; KUB4010 Providencia rettgeri ATCC BAA-2525, OXA-181
[4] = test system: Enterobacter cloacae; assay: as above
[5] = test system: Porphyromonas spp.; assay: MIC, agar dilution, anaerobic bacteria (Example 9, Tables 19, 24); details: for MIC: (n)=Compound A µg/mL, 0=Compound A alone antibacterial
[6] = test system: Enterobacter cloacae complex; assay: MIC and MBC, broth microdilution (Example 4, Table 3); details: Enterobacter cloacae complex CDC-164 (NMC-A)
[7] = test system: Serratia marcescens; assay: as above; details: Serratia marcescens CDC-124 (SME-3)
[8] = test system: Enterobacter aerogenes; assay: as above; details: Klebsiella aerogenes
[9] = test system: Gram-positive bacteria; assay: MIC, agar dilution, anaerobic bacteria (Example 9, Tables 21, 26)
[10] = test system: Escherichia coli; assay: MIC, broth microdilution, standard strains and Japanese clinical isolates (Example 5, Table 4)
[11] = table at the place of Table 24, Prevotella spp.

Q: How did the MIC [1] turn out when `C[C@@H](O)[C@H]1C(=O)N2C(C(=O)O)=C(S[C@@H]3CN[C@H](C(=O)N(C)C)C3)[C@H](C)[C@H]12` [MEPM, meropenem] was run?
A: 16 µg/mL (≈ 41.7 µM)

Q: What about the MIC [2] of the same compound?
A: 16 µg/mL (≈ 41.7 µM)

Q: What about the MIC [3] of the same compound?
A: 2 µg/mL (≈ 5.22 µM)

Q: What about the MIC ([4]; ATCCBAA2341, KUB4002 Enterobacter cloacae ATCC BAA-2341, KPC-3) of the same compound?
A: 16 µg/mL (≈ 41.7 µM)

Q: What about the MIC ([4]; KUB3165 Enterobacter cloacae Clinical isolate, IMP-34) of the same compound?
A: 0.25 µg/mL (≈ 0.652 µM)

Q: What about the MIC ([4]; KUB3167 Enterobacter cloacae Clinical isolate, IMP-1) of the same compound?
A: 0.25 µg/mL (≈ 0.652 µM)

Q: What about the MIC ([4]; KUB3168 Enterobacter cloacae Clinical isolate, carbapenemase genes -) of the same compound?
A: 0.06 µg/mL (≈ 0.156 µM)

Q: What about the MIC ([4]; KUB3609 Enterobacter cloacae Clinical isolate, IMP-1) of the same compound?
A: 16 µg/mL (≈ 41.7 µM)

Q: And the MIC ([4]; KUB3610 Enterobacter cloacae Clinical isolate, IMP-1)?
A: 4 µg/mL (≈ 10.4 µM)

Q: And the MIC ([5]; KUB No. 6663 Porphyromonas gingivalis)?
A: ≤ 0.03 µg/mL

Q: And the MIC ([5]; KUB No. 6666 Porphyromonas gingivalis)?
A: ≤ 0.03 µg/mL

Q: And the MIC ([5]; KUB No. 6667 Porphyromonas gingivalis)?
A: ≤ 0.03 µg/mL

Q: And the MIC ([5]; KUB No. 6668 Porphyromonas gingivalis)?
A: ≤ 0.03 µg/mL

Q: And the MIC ([5]; KUB No. 6669 Porphyromonas gingivalis)?
A: ≤ 0.03 µg/mL

Q: And the MIC ([5]; KUB No. 6670 Porphyromonas gingivalis)?
A: ≤ 0.03 µg/mL

Q: What about the MIC ([5]; KUB No. 6671 Porphyromonas gingivalis) of the same compound?
A: ≤ 0.03 µg/mL

Q: What about the MIC ([5]; KUB No. 6672 Porphyromonas gingivalis) of the same compound?
A: ≤ 0.03 µg/mL

Q: What about the MIC ([5]; KUB No. 6673 Porphyromonas gingivalis) of the same compound?
A: ≤ 0.03 µg/mL

Q: What about the MIC ([5]; KUB No. 6674 Porphyromonas gingivalis) of the same compound?
A: ≤ 0.03 µg/mL

Q: And the MIC ([5]; KUB No. 6676 Porphyromonas gingivalis)?
A: ≤ 0.03 µg/mL

Q: And the MIC ([5]; KUB No. 6677 Porphyromonas gingivalis)?
A: ≤ 0.03 µg/mL

Q: What about the MIC ([5]; KUB No. 6678 Porphyromonas gingivalis) of the same compound?
A: ≤ 0.03 µg/mL

Q: What about the MIC ([5]; KUB No. 6679 Porphyromonas gingivalis) of the same compound?
A: ≤ 0.03 µg/mL

Q: What about the MIC ([5]; KUB No. 6680 Porphyromonas gingivalis) of the same compound?
A: ≤ 0.03 µg/mL

Q: What about the MIC ([5]; KUB No. 6681 Porphyromonas gingivalis) of the same compound?
A: ≤ 0.03 µg/mL

Q: And the MIC ([5]; KUB No. 6682 Porphyromonas gingivalis)?
A: ≤ 0.03 µg/mL

Q: What about the MIC ([5]; KUB No. 6683 Porphyromonas gingivalis) of the same compound?
A: ≤ 0.03 µg/mL

Q: What about the MIC ([5]; KUB No. 6684 Porphyromonas gingivalis) of the same compound?
A: ≤ 0.03 µg/mL

Q: What about the MIC ([5]; KUB No. 6685 Porphyromonas gingivalis) of the same compound?
A: ≤ 0.03 µg/mL

Q: And the MIC ([5]; KUB No. 6686 Porphyromonas gingivalis)?
A: ≤ 0.03 µg/mL

Q: And the MIC ([5]; KUB No. 6687 Porphyromonas gingivalis)?
A: ≤ 0.03 µg/mL

Q: And the MIC ([5]; KUB No. 6688 Porphyromonas gingivalis)?
A: 0.03 µg/mL (≈ 0.0782 µM)

Q: And the MIC ([5]; Porphyromonas, KUB No. 6665 Porphyromonas assaccharolytica)?
A: ≤ 0.03 µg/mL

Q: What about the MIC50 ([5]; Porphyromonas, n=26, combination: Compound A at 4 ug/mL, read-out: MIC50) of the same compound?
A: ≤ 0.03 µg/mL

Q: What about the MIC90 ([5]; Porphyromonas, n=26, combination: Compound A at 4 ug/mL, read-out: MIC90) of the same compound?
A: ≤ 0.03 µg/mL

Q: What about the MIC50 [5, 11] of the same compound?
A: ≤0.03 µg/mL

Q: And the MIC90 [5, 11]?
A: ≤0.03 µg/mL

Q: What about the MICrange [5, 11] of the same compound?
A: ≤0.03 µg/mL

Q: And the MBC [6]?
A: 32 µg/mL (≈ 83.4 µM)

Q: And the MIC [6]?
A: 32 µg/mL (≈ 83.4 µM)

Q: And the MIC [7]?
A: 64 µg/mL (≈ 167 µM)

Q: What about the MBC [8] of the same compound?
A: 8 µg/mL (≈ 20.9 µM)

Q: And the MIC [8]?
A: 4 µg/mL (≈ 10.4 µM)

Q: What about the MIC50 [9] of the same compound?
A: 0.06 µg/mL (≈ 0.156 µM)

Q: And the MIC90 [9]?
A: 2 µg/mL (≈ 5.22 µM)

Q: And the MIC ([9]; ATCC43255, KUB No. 3518 Clostridioides difficile ATCC 43255, read-out: MIC)?
A: 2 µg/mL (≈ 5.22 µM)

Q: And the MIC ([9]; ATCC700057, KUB No. 2978 Clostridioides difficile ATCC 700057, read-out: MIC)?
A: 2 µg/mL (≈ 5.22 µM)

Q: What about the MIC ([9]; ATCCBAA1803, KUB No. 3511 Clostridioides difficile ATCC BAA-1803, read-out: MIC) of the same compound?
A: 4 µg/mL (≈ 10.4 µM)

Q: And the MIC ([9]; ATCCBAA1870, KUB No. 3385 Clostridioides difficile ATCC BAA-1870, read-out: MIC)?
A: 4 µg/mL (≈ 10.4 µM)

Q: And the MIC ([9]; Cutibacterium acnes, ATCC11827)?
A: ≤ 0.03 µg/mL

Q: And the MIC ([9]; Eggerthella lenta, ATCC43055)?
A: 0.5 µg/mL (≈ 1.3 µM)

Q: What about the MIC ([9]; Finegoldia magna, ATCC29328) of the same compound?
A: 0.06 µg/mL (≈ 0.156 µM)

Q: And the MICrange ([9]; Gram-positive bacteria)?
A: ≤0.03 to 4 µg/mL

Q: What about the MIC50 ([9]; Gram-positive bacteria, read-out: MIC50) of the same compound?
A: 0.06 µg/mL (≈ 0.156 µM)

Q: What about the MIC90 ([9]; Gram-positive bacteria, read-out: MIC90) of the same compound?
A: 2 µg/mL (≈ 5.22 µM)

Q: And the MIC ([9]; KUB No. 3013 Bulleidia extructa, read-out: MIC)?
A: 0.12 µg/mL (≈ 0.313 µM)

Q: What about the MIC ([9]; KUB No. 3014 Atropobium rimae, read-out: MIC) of the same compound?
A: 0.06 µg/mL (≈ 0.156 µM)

Q: What about the MIC ([9]; Olsenella uli) of the same compound?
A: ≤ 0.03 µg/mL

Q: What about the MIC ([9]; Peptoniphilus asaccharolyticus, ATCC14963) of the same compound?
A: ≤ 0.03 µg/mL

Q: And the MIC ([9]; Peptoniphilus indolicus)?
A: ≤ 0.03 µg/mL

Q: And the MIC ([9]; Peptostreptococcus anaerobius)?
A: 2 µg/mL (≈ 5.22 µM)

Q: And the MIC ([9]; Schaalia odontolytica, ATCC17929, KUB No. 3488 Actinomyces odontolyticus ATCC 17929, read-out: MIC)?
A: 0.12 µg/mL (≈ 0.313 µM)

Q: What about the MIC ([10]; ATCCBAA2340, KUB3148 Escherichia coli ATCC BAA-2340, KPC-3) of the same compound?
A: 0.5 µg/mL (≈ 1.3 µM)

Q: And the MIC ([10]; ATCCBAA2452, KUB4005 Escherichia coli ATCC BAA-2452, NDM-1)?
A: 1 µg/mL (≈ 2.61 µM)

Q: And the MIC ([10]; ATCCBAA2469, KUB3149 Escherichia coli ATCC BAA-2469, NDM-1)?
A: 2 µg/mL (≈ 5.22 µM)

Q: And the MIC ([10]; ATCCBAA2471, KUB4007 Escherichia coli ATCC BAA-2471, NDM-6)?
A: 32 µg/mL (≈ 83.4 µM)

Q: And the MIC ([10]; ATCCBAA2523, KUB3150 Escherichia coli ATCC BAA-2523, OXA-48)?
A: 0.06 µg/mL (≈ 0.156 µM)

Q: What about the MIC ([10]; KUB3151 Escherichia coli NCTC13476, IMP-1) of the same compound?
A: 1 µg/mL (≈ 2.61 µM)

Q: What about the MIC ([10]; KUB3605 Escherichia coli Clinical isolate, NDM-1) of the same compound?
A: 32 µg/mL (≈ 83.4 µM)
